Tested on: hepatocytes
Test: Seq-Well scRNA-Seq of hepatocytes after APAP overdose (signature scores, DEG vs untreated)
Type: in vivo, mouse
[1] = cluster A6, DEG between treatment (APAP and PH)

CC(=O)Nc1ccc(O)cc1 [APAP, acetaminophen]
Ugdh avg_logFC (cluster A6 (APAP 6 hr)): 0.5563 | Ugdh pct.1 (cluster A6 (APAP 6 hr)): 0.721 | Vcam1 avg_logFC (cluster A6 (APAP 6 hr)): 0.4376 | Vcam1 pct.1 (cluster A6 (APAP 6 hr)): 0.134 | Vsig4 avg_logFC (cluster A6 (APAP 6 hr)): 0.4542 | Vsig4 pct.1 (cluster A6 (APAP 6 hr)): 0.117 | Wfdc17 avg_logFC (cluster A6 (APAP 6 hr)): 0.4173 | Wfdc17 pct.1 (cluster A6 (APAP 6 hr)): 0.177 | Xbp1 avg_logFC (cluster A6 (APAP 6 hr)): 0.4407 | Xbp1 pct.1 (cluster A6 (APAP 6 hr)): 0.692 | Ywhag avg_logFC (cluster A6 (APAP 6 hr)): 0.4649 | Ywhag pct.1 (cluster A6 (APAP 6 hr)): 0.518 | mmu-mir-6240 avg_logFC (cluster A6 (APAP 6 hr)): 1.083 | mmu-mir-6240 pct.1 (cluster A6 (APAP 6 hr)): 0.413 | avg_logFC 1700017B05Rik [1]: 0.3277 | avg_logFC 2010003K11Rik [1]: 0.5729 | avg_logFC AA474408 [1]: 0.2664 | avg_logFC Aass [1]: 0.4071 | avg_logFC Abca1 [1]: 0.6539 | avg_logFC Abhd2 [1]: 0.4149 | avg_logFC Actb [1]: 1.052 | avg_logFC Aff4 [1]: 0.5363 | avg_logFC Agpat9 [1]: 0.3049 | avg_logFC Alb [1]: 0.3749 | avg_logFC Apoa4 [1]: 1.166 | avg_logFC Apob [1]: 0.4802 | avg_logFC App [1]: 0.3381 | avg_logFC Arhgef12 [1]: 0.4856 | avg_logFC Asl [1]: 0.4135 | avg_logFC B4galt5 [1]: 0.4239 | avg_logFC Bach1 [1]: 0.7686 | avg_logFC Bcl2l1 [1]: 0.7415 | avg_logFC Bcl3 [1]: 0.2741 | avg_logFC Btg1 [1]: 0.3984 | avg_logFC Btg2 [1]: 0.7669 | avg_logFC C3 [1]: 0.2785 | avg_logFC C230081A13Rik [1]: 0.4184 | avg_logFC Cars [1]: 0.3067 | avg_logFC Ccl6 [1]: 0.7868 | avg_logFC Cdkn1a [1]: 1.252 | avg_logFC Cers6 [1]: 0.5071 | avg_logFC Chic2 [1]: 0.3964 | avg_logFC Chka [1]: 1.403 | avg_logFC Cidec [1]: 0.3067 | avg_logFC Cldn14 [1]: 0.3695 | avg_logFC Clec4f [1]: 1.124 | avg_logFC Cltc [1]: 0.6852 | avg_logFC Creb3l2 [1]: 0.3971 | avg_logFC Ctsl [1]: 0.5128 | avg_logFC Cxadr [1]: 0.6568 | avg_logFC Cyp4a14 [1]: 0.3334 | avg_logFC D10Wsu102e [1]: 0.5698 | avg_logFC Ddx3x [1]: 0.5612 | avg_logFC Ddx5 [1]: 0.5397 | avg_logFC Ddx21 [1]: 0.6559 | avg_logFC Dgkd [1]: 0.3584 | avg_logFC Dkc1 [1]: 0.3054 | avg_logFC Dot1l [1]: 0.3853 | avg_logFC Dusp6 [1]: 0.5087 | avg_logFC Dusp16 [1]: 0.4273 | avg_logFC Eaf1 [1]: 0.5072 | avg_logFC Eef2 [1]: 0.4059 | avg_logFC Efhd2 [1]: 0.5766 | avg_logFC Egr1 [1]: 0.537 | avg_logFC Eif1a [1]: 0.7228 | avg_logFC Eif4g2 [1]: 0.4126 | avg_logFC Eif5 [1]: 0.4809 | avg_logFC Epas1 [1]: 0.7138 | avg_logFC Epb4.1 [1]: 0.4678 | avg_logFC Errfi1 [1]: 0.3421 | avg_logFC Etf1 [1]: 0.4526 | avg_logFC Ets2 [1]: 0.6806 | avg_logFC Fam107b [1]: 0.4162 | avg_logFC Fam134b [1]: 0.8152 | avg_logFC Fga [1]: 0.501 | avg_logFC Fgb [1]: 0.4774 | avg_logFC Fgg [1]: 0.4751 | avg_logFC Fkbp5 [1]: 0.4567 | avg_logFC Fndc3b [1]: 0.3496 | avg_logFC Gclc [1]: 1.802 | avg_logFC Gcnt2 [1]: 0.5038 | avg_logFC Gjb2 [1]: 0.5038 | avg_logFC Gm15564 [1]: 0.7861 | avg_logFC Gm20594 [1]: 0.4405 | avg_logFC Gm24245 [1]: 0.4984 | avg_logFC Gm26917 [1]: 0.4239 | avg_logFC Gm26924 [1]: 0.7269 | avg_logFC Gn12 [1]: 0.358 | avg_logFC Gnl3 [1]: 0.4902 | avg_logFC Gpt2 [1]: 0.4695 | avg_logFC Gsta1 [1]: 0.4089 | avg_logFC Gtpbp4 [1]: 0.4623 | avg_logFC H3f3b [1]: 0.7184 | avg_logFC Hbb-bs [1]: 2.586 | avg_logFC Heatr1 [1]: 0.3815 | avg_logFC Hif1a [1]: 0.4876 | avg_logFC Hilpda [1]: 0.7803 | avg_logFC Hmox1 [1]: 1.34 | avg_logFC Hnf4a [1]: 0.6962 | avg_logFC Hnrnpdl [1]: 0.3993 | avg_logFC Hsd17b13 [1]: 0.4804 | avg_logFC Hspb8 [1]: 0.6089 | avg_logFC Ifrd1 [1]: 0.4765 | avg_logFC Igfbp1 [1]: 1.09 | avg_logFC Iigp1 [1]: 0.6431 | avg_logFC Il1r1 [1]: 1.189 | avg_logFC Insig2 [1]: 0.6081 | avg_logFC Itih2 [1]: 0.3927 | avg_logFC Itih3 [1]: 0.4042 | avg_logFC Jak1 [1]: 0.5437 | avg_logFC Jmjd1c [1]: 0.5963 | avg_logFC Kif5b [1]: 0.4522 | avg_logFC Klf6 [1]: 0.7067 | avg_logFC Krt8 [1]: 1.273 | avg_logFC Krt18 [1]: 1.227 | avg_logFC Lars2 [1]: 0.8143 | avg_logFC Lcn2 [1]: 0.3876 | avg_logFC Lmo4 [1]: 0.2962 | avg_logFC Lpin2 [1]: 0.5165 | avg_logFC Lrg1 [1]: 0.3324 | avg_logFC Lrrc58 [1]: 0.9396 | avg_logFC Lrrfip1 [1]: 0.4108 | avg_logFC Lyst [1]: 0.3717 | avg_logFC Mak16 [1]: 0.2897 | avg_logFC Malat1 [1]: 0.9854 | avg_logFC Map2k3 [1]: 0.415 | avg_logFC Map3k5 [1]: 0.3131 | avg_logFC Mat1a [1]: 0.3889 | avg_logFC Mat2a [1]: 0.4758 | avg_logFC Mcl1 [1]: 0.5249 | avg_logFC Mdn1 [1]: 0.3079 | avg_logFC Mfsd2a [1]: 0.461 | avg_logFC Mmp14 [1]: 0.2571 | avg_logFC Mpeg1 [1]: 0.4668 | avg_logFC Mrap [1]: 0.8615 | avg_logFC Mt1 [1]: 2.32 | avg_logFC Mt2 [1]: 2.038 | avg_logFC Mybbp1a [1]: 0.4018 | avg_logFC Myh9 [1]: 1.025 | avg_logFC Myl12a [1]: 0.4029 | avg_logFC Myo1e [1]: 0.5786 | avg_logFC Nars [1]: 0.3687 | avg_logFC Ncl [1]: 0.3882 | avg_logFC Neat1 [1]: 0.6554 | avg_logFC Nedd4l [1]: 0.2635 | avg_logFC Nolc1 [1]: 0.4445 | avg_logFC Nop58 [1]: 0.6343 | avg_logFC Pfkfb2 [1]: 0.2694 | avg_logFC Phc2 [1]: 0.299 | avg_logFC Picalm [1]: 0.6766 | avg_logFC Plec [1]: 0.4188 | avg_logFC Plin2 [1]: 1.454 | avg_logFC Plk3 [1]: 0.4158 | avg_logFC Plscr1 [1]: 0.4497 | avg_logFC Ppan [1]: 0.2767 | avg_logFC Ppl [1]: 0.8618 | avg_logFC Prrc2c [1]: 0.3906 | avg_logFC Ptp4a1 [1]: 0.2517 | avg_logFC Ptpn1 [1]: 0.3865 | avg_logFC Ptpn2 [1]: 0.271 | avg_logFC Ptpn12 [1]: 0.3093 | avg_logFC Pxk [1]: 0.2652 | avg_logFC Rad54l2 [1]: 0.3642 | avg_logFC Ranbp2 [1]: 0.5074 | avg_logFC Rcan1 [1]: 0.701 | avg_logFC Rell1 [1]: 0.5793 | avg_logFC Retsat [1]: 0.2918 | avg_logFC Rnd3 [1]: 0.3267 | avg_logFC Rock2 [1]: 0.5552 | avg_logFC Rora [1]: 0.541 | avg_logFC S100a8 [1]: 1.127 | avg_logFC S100a9 [1]: 1.342 | avg_logFC Sat1 [1]: 0.6887 | avg_logFC Sdad1 [1]: 0.2969 | avg_logFC Sdc4 [1]: 0.5673 | avg_logFC Sds [1]: 0.3515 | avg_logFC Serpina3m [1]: 0.7932 | avg_logFC Serpina3n [1]: 0.6641 | avg_logFC Slc10a2 [1]: 0.2704 | avg_logFC Slc16a6 [1]: 0.914 | avg_logFC Slc20a1 [1]: 0.326 | avg_logFC Slc39a14 [1]: 0.9161 | avg_logFC Smg1 [1]: 0.3045 | avg_logFC Son [1]: 0.4555 | avg_logFC Spred1 [1]: 0.352 | avg_logFC Sqstm1 [1]: 0.6992 | avg_logFC Srgn [1]: 0.9289 | avg_logFC Srxn1 [1]: 1.864 | avg_logFC St3gal1 [1]: 0.517 | avg_logFC St3gal5 [1]: 0.4358 | avg_logFC Stat3 [1]: 0.652 | avg_logFC Stk40 [1]: 0.493 | avg_logFC Stom [1]: 0.3 | avg_logFC Tacc2 [1]: 0.3128 | avg_logFC Tars [1]: 0.4718 | avg_logFC Tatdn2 [1]: 0.3248 | avg_logFC Tbc1d15 [1]: 0.4322 | avg_logFC Tcerg1 [1]: 0.3468 | avg_logFC Tiparp [1]: 0.5248 | avg_logFC Tjp2 [1]: 0.3961 | avg_logFC Tm4sf4 [1]: 0.4006 | avg_logFC Tmem87b [1]: 0.4054

From patent publication US20230053540A1, “TREATMENT OF LIVER INJURY” (Massachusetts Institute of Technology, priority 2019, published 2023)
